Test results: PubChem BioAssay (NCI)
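The compound was tested at five concentrations on cells cultured in 96-well plates, with a 48-hour exposure period. Here, GI50 denotes the concentration required for 50% inhibition of growth. The concentration for full growth arrest is given as TGI.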

How the values were obtained:
Test in all cases: NCI tumour cell line growth inhibition, 48 h
OVCAR-4 ovarian = system: OVCAR-4 ovarian
MCF7 breast = system: MCF7 breast
SK-MEL-2 melanoma = system: SK-MEL-2 melanoma
HOP-62 NSCLC = system: HOP-62 NSCLC
NCI/ADR-RES ovarian = system: NCI/ADR-RES ovarian
MOLT-4 leukemia = system: MOLT-4 leukemia
DU-145 prostate = system: DU-145 prostate
NCI-H23 lung = system: NCI-H23 lung
U251 CNS = system: U251 CNS
BT-549 breast = system: BT-549 breast

Row | SMILES | TGI (OVCAR-4 ovarian) [µM] | TGI (MCF7 breast) [µM] | TGI (SK-MEL-2 melanoma) [µM] | TGI (HOP-62 NSCLC) [µM] | TGI (NCI/ADR-RES ovarian) [µM] | TGI (MOLT-4 leukemia) [µM] | TGI (DU-145 prostate) [µM] | TGI (NCI-H23 lung) [µM] | TGI (U251 CNS) [µM] | GI50 (OVCAR-4 ovarian) [µM] | GI50 (BT-549 breast) [µM] | TGI (BT-549 breast) [µM] | GI50 (MCF7 breast) [µM] | GI50 (SK-MEL-2 melanoma) [µM] | GI50 (NCI/ADR-RES ovarian) [µM] | GI50 (DU-145 prostate) [µM] | GI50 (NCI-H23 lung) [µM] | GI50 (HOP-62 NSCLC) [µM] | GI50 (MOLT-4 leukemia) [µM] | GI50 (U251 CNS) [µM]
1 | CC1(C)CC2=NOS3=C2C(=NO3)C1c1ccccn1 (stereo unspecified) | > 100 | > 100 | > 100 | > 100 | > 100 | 95.6 | > 100 | > 100 | > 100 |  |  |  |  |  |  |  |  |  |  | 
2 | C/C=C/CP(=O)(c1ccccc1)c1ccccc1 | > 100 |  | > 100 | > 100 |  | > 100 |  | > 100 | > 100 |  |  |  |  |  |  |  |  |  |  | 
3 | NC(=S)N/N=C1\C(=O)N(c2cccc([N+](=O)[O-])c2)C(=O)C1C(=O)Nc1cccc([N+](=O)[O-])c1 (stereo unspecified) | > 100 |  | > 100 | > 100 |  | > 100 |  | > 100 | > 100 |  |  |  |  |  |  |  |  |  |  | 
4 | Cc1cccc(Oc2ccc(Nc3ncnc4ccc(NC(=O)CN5CCN(C)CC5)cc34)cc2Cl)c1 | 4.3 | 2.99 | 3.64 |  | 4.24 |  | 2.57 | 3.49 |  | 1.72 | 1.45 | 2.81 | 1.51 | 1.87 | 1.73 | 1.18 | 1.74 |  |  | 
5 | CCN(CC)CCCC(C)N/C(c1cccc(OC)c1)=c1\c(=O)[nH]n(-c2c3ccccc3nc3ccccc23)c(=O)\c1=C(/NC(C)CCCN(CC)CC)c1cccc(OC)c1 (stereo unspecified) | 4.11 | 3.41 |  | 5.03 | 8.91 | 3.89 | 8.86 | 4.69 |  | 1.22 | 2.15 | 4.85 | 0.507 |  | 1.79 | 1.44 | 2.02 | 1.47 | 0.6 | 
6 | COc1cc(/C=C2\C[C@H]3[C@@H]4CC=C5C[C@@H](OC(C)=O)CC[C@]5(C)[C@H]4CC[C@]3(C)[C@H]2OC(C)=O)ccc1OCCCn1ccnc1 |  | 20.9 | > 50 | 19.5 | 28.8 | > 50 | 18.7 | 21.1 | 12.7 |  | 5.68 | 13.6 | 9.95 | 16.7 | 11.3 | 9.14 | 9.94 | 11.3 | 17.1 | 6.28
7 | O=C(Nc1ccc(N=Nc2ccccc2)cc1)Sc1ccccc1C(=O)O | > 100 |  | > 100 | > 100 |  | > 100 |  | > 100 | > 100 |  |  |  |  |  |  |  |  |  |  | 
8 | CC(=O)Oc1cc2c(=O)oc3c(OC(C)=O)c(OC(C)=O)c(OC(C)=O)c4c(=O)oc(c1OC(C)=O)c2c34 | > 100 |  | > 100 | > 100 |  | > 100 |  | > 100 | > 100 |  |  |  |  |  |  |  |  |  |  | 
9 | N#CC(c1ccc(Cl)cc1)c1cccc(Cl)n1 (stereo unspecified) | > 100 |  | > 100 | > 100 |  | > 100 |  | > 100 | > 100 |  |  |  |  |  |  |  |  |  |  | 
10 | N#Cc1c(C(N)=O)ncn1Cc1ccccc1 | > 100 |  | > 100 | > 100 |  | > 100 |  | > 100 | > 100 |  |  |  |  |  |  |  |  |  |  | 
11 | C=C1C(=O)O[C@H]2[C@H]1CC/C(COC(=O)N[C@@H](Cc1c[nH]c3ccccc13)C(=O)OC)=C\CC[C@@]1(C)O[C@@H]21 | 5.62 |  | 6.06 | 22.1 | 27.3 | 5.05 | 2.44 | 4.59 | 7.32 | 2.03 | 1.84 | 3.79 |  | 2.21 | 6.78 | 1.08 | 1.84 | 8.77 | 1.54 | 2.42
12 | O=C(CC1(O)C(=O)Nc2ccccc21)c1ccc(O)cc1O (stereo unspecified) | > 100 |  | > 100 | > 100 |  | > 100 |  | > 100 |  |  |  |  |  |  |  |  |  |  |  | 
13 | Cc1ccc(NC(=O)/C(=N/NC(=O)CC#N)C2C(=O)N(c3ccccc3)N=C2N)cc1C (stereo unspecified) | > 100 |  | > 100 | > 100 |  | > 100 |  | > 100 | > 100 |  |  |  |  |  |  |  |  |  |  | 
14 | Cc1ccc(C2=NN(C)COC2C(F)(F)F)cc1 (stereo unspecified) | > 100 |  | > 100 | > 100 |  | > 100 |  | > 100 | > 100 |  |  |  |  |  |  |  |  |  |  | 
15 | COc1ccc(C2c3cc4c(cc3OC(O)(CO)C2C(=O)O)OCO4)c(OC)c1OC (stereo unspecified) (tested in a mixture with another compound) | > 100 |  | > 100 | > 100 |  | > 100 |  | > 100 | > 100 |  |  |  |  |  |  |  |  |  |  | 
16 | CO/C=C/c1cc2c(cc1C(OC)OC)OCO2 | > 100 |  | > 100 | 75 |  | > 100 |  | > 100 | > 100 |  |  |  |  |  |  |  |  |  |  | 
17 | C[C@]12CC[C@H]3[C@@H](CC=C4C[C@@H](O)CC[C@@]43C)[C@@H]1C/C(=C\c1cccc(OCCCn3ccnc3)c1)[C@@H]2O | 32.7 | 34.2 | 33.6 | 32.7 | 99.7 | 32.2 | 28.3 | 30.1 | 24.7 | 12.8 |  |  | 14.5 | 17.4 | 20.4 | 14.2 | 13 | 15.1 | 6.55 | 11.8
18 | CCCN1C(=O)/C(=C/c2ccc(O)cc2)SC1=Nc1ccccc1 | 49.5 |  | > 100 | 37.9 | 36.4 | > 100 | 40.8 | 93 | 29 | 25.2 |  |  |  | 51 | 20.4 | 17.4 | 34.1 | 21.2 | > 100 | 15.6
19 | CCC12CC[C@H](C#N)N3CCc4c(n(c5ccccc45)C(=O)C1)C32 (stereo partly specified) | 31.7 |  | 31.9 | 49.2 |  | 52 |  | 41.8 | 29.8 |  |  |  |  |  |  |  |  |  |  | 
20 | O=C(O/N=C1/CCC/C1=C\c1ccccc1)c1ccccc1 | > 100 |  | > 100 | > 100 |  | 78.1 |  | > 100 | > 100 |  |  |  |  |  |  |  |  |  |  | 
